In ChEMBL document CHEMBL1201862, “PubChem BioAssay data set” (2004):
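In this assay, cells in 96-well plates receive the compound at five concentrations for 48 hours. Endpoints are linearly interpolated between the surrounding concentrations. GI50: concentration for 50% inhibition of growth.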 The source made the active and inactive calls. Rule as the data show it: active = GI50 up to about 1.1 µM and inactive = higher.

What was measured:
Assay in all cases: NCI-60 cell line screen, 48 h
XF498 = test system: XF498
RXF 631 = test system: RXF 631
HOP-18 = test system: HOP-18
DMS-114 = test system: DMS-114
M19-MEL = test system: M19-MEL
DMS-273 = test system: DMS-273
LXFL 529 = test system: LXFL 529
DLD-1 = test system: DLD-1

Measured: GI50

C/C(CCn1[nH]c(=O)ccc1=O)=N\O
inactive: XF498 > 100 µM | RXF 631 > 100 µM | HOP-18 > 100 µM | DMS-114 > 100 µM | M19-MEL > 100 µM | DMS-273 > 100 µM | LXFL 529 > 100 µM | DLD-1 > 100 µM

CCSc1nnc(CSc2nc(-c3ccccc3)c(-c3ccccc3)[nH]2)n1-c1ccccc1
inactive: XF498 20.3 µM | RXF 631 19.6 µM | HOP-18 13.8 µM | DMS-114 19 µM | M19-MEL 18.6 µM | DMS-273 23.4 µM | LXFL 529 27.4 µM | DLD-1 20.2 µM

COc1cccc2cc(C)c(C(=O)c3ccccc3)nc12
inactive: XF498 > 100 µM | RXF 631 > 100 µM | HOP-18 > 100 µM | DMS-114 > 100 µM | M19-MEL > 100 µM | DMS-273 > 100 µM | LXFL 529 > 100 µM | DLD-1 > 100 µM

CCOC(=O)CC1=Nc2ccccc2SC1
inactive: XF498 > 100 µM | RXF 631 > 100 µM | HOP-18 > 100 µM | DMS-114 > 100 µM | M19-MEL > 100 µM | DMS-273 > 100 µM | LXFL 529 > 100 µM | DLD-1 > 100 µM

COC(=O)/C(=N\Nc1nc(S)nn1N)C(C#N)c1ccc(Cl)cc1 (configuration not stated)
inactive: XF498 > 100 µM | RXF 631 > 100 µM | HOP-18 > 100 µM | DMS-114 > 100 µM | M19-MEL > 100 µM | DMS-273 > 100 µM | LXFL 529 > 100 µM | DLD-1 > 100 µM

N/N=c1/nc2n(c3ncccc13)C=CNN2
inactive: XF498 > 100 µM | RXF 631 > 100 µM | DMS-114 > 100 µM | DMS-273 > 100 µM | LXFL 529 > 100 µM | DLD-1 > 100 µM

COCC1C(=O)c2cc3c(cc2C12C=CC1(C=C2)OCCO1)OCO3 (configuration not stated)
inactive: XF498 5.38 µM | RXF 631 4.59 µM | DMS-114 2.99 µM | M19-MEL 2.93 µM | DMS-273 11.1 µM | LXFL 529 2.49 µM | DLD-1 2.22 µM

CC(=O)CCC1(c2ccccc2)OC(=O)C(C#N)=C1c1ccccc1 (configuration not stated)
inactive: XF498 > 100 µM | RXF 631 > 100 µM | DMS-114 > 100 µM | M19-MEL > 100 µM | DMS-273 > 100 µM | LXFL 529 59.4 µM | DLD-1 > 100 µM

N#CC1CCCCOCCOCCOCCOCCOCCCCCC1=O (configuration not stated)
inactive: RXF 631 > 100 µM | HOP-18 > 100 µM | DMS-114 > 100 µM | M19-MEL > 100 µM | DMS-273 > 100 µM | LXFL 529 > 100 µM | DLD-1 > 100 µM

COC(=O)C1C2C=CC(C2)C1(C(=O)OC)[S+]([O-])CC12CCC(CC1O)C2(C)C (configuration not stated)
inactive: XF498 > 100 µM | RXF 631 > 100 µM | HOP-18 > 100 µM | DMS-114 85.7 µM | M19-MEL > 100 µM | DMS-273 44.4 µM | LXFL 529 > 100 µM | DLD-1 60.8 µM

Cc1cc(Br)cc(C)c1NC(=O)C(=O)C(C(=O)c1ccncc1)C1OC(=O)c2ccccc21 (configuration not stated)
inactive: XF498 > 100 µM | RXF 631 > 100 µM | HOP-18 > 100 µM | DMS-114 > 100 µM | DMS-273 > 100 µM | LXFL 529 > 100 µM | DLD-1 > 100 µM
